One data set deals with CYP2B6. The data set is described as follows: Induction of CYP2B6 gene expression in HepaRG (real-time PCR). The data set is classed as in vitro ADME, human. The settings on record: 50 μM omeprazole (positive control), 24 hours. As for the experimental part:
(§1) HepaRG was purchased from the Thermo Fisher Scientific. The cells were used immediately after purchase without any subculture. A William's medium E basal medium supplemented with Thaw, Plate & General Purpose Supplements was used for general cell culture. A William's medium E basal medium supplemented containing Induction Medium Supplements was used for induction experiment. The cells were cultured in a 24-well culture plate coated with collagen type I in an incubator at 37° C., 5% CO2. All culture media and additives used for HepaRG cell culture were purchased from the Thermo Fisher Scientific.
(§2) According to [Materials and Methods 3-4], human hepatoma cell line (HepaRG) were plated at 5×10^5 cells/ml in a 24-well plate coated with collagen type I and cultured for 72 hours at 37° C., 5% CO2. Then, the cells were treated for 24 hours with a positive control drug or with a Lithospermi Radix extract (WLR) at concentrations of 10, 20, 100, and 500 μg/ml. For a positive control drug, 50 μM omeprazole was used for CYP1A2 and CYP2B6, and 10 μM rifampicin was used for CYP3A4 and P-gp. Distilled water was used as a negative control. After 24 hours, total RNA was extracted using an Easy-Spin™ Total RNA extraction kit (iNtRON Biotechnology). cDNA was synthesized from total RNA (500 ng) using oligo dT and iScript cDNA synthesis kit (Bio-Rad). […]

A further data set concerns CYP1A2. The data set is described as follows: Induction of CYP1A2 gene expression in HepaRG (real-time PCR). The class given is in vitro ADME, human. The settings on record: 50 μM omeprazole (positive control), 24 hours. As for the experimental part: as §1, §2
The test system of the next data set is P-gp. The data set is described as follows: Induction of P-gp gene expression in HepaRG (real-time PCR). The data set is classed as in vitro ADME, human. The conditions noted are these: 10 μM rifampicin (positive control), 24 hours. As for the experimental part:
as §1, §2

Data set [1] concerns dorsal root ganglion (DRG) neurons of peripheral neuropathic animals induced by oxaliplatin. The data set is described as follows: Morphological cell analysis of dorsal root ganglion neurons. The data set is classed as in vivo, C57BL/6 mice. The settings on record: after oxaliplatin 10 mg/kg; WLR 250 mg/kg oral 6 times per week or amifostine 100 mg/kg i.p. 2 times per week, 2 weeks. From the text:
(§3) In the present invention, an animal model having peripheral neuropathy was induced by oxaliplatin. Eight-week old male C57BL/6 mice were purchased from the OrientBio. Following 1 week acclimation period in a cage in an animal test room, the base line (BL) of responses of experimental animals to 3 times of mechanical stimulations applied to the right hind footpad of the animal using von Frey filament hair. Then, the animals were divided into different groups (N=8 animals/group). Peripheral neuropathy was induced by injection of 5 mg/kg oxaliplatin through tail veins of animals (once a week, 2 times for 2 weeks, i.e., 10 mg/kg oxaliplatin in total). Oxaliplatin was purchased from the LC Laboratories.
(§4) The specimens were prepared to histologically determine the protective effect of the Lithospermi Radix extract (WLR) against neuronal damage in peripheral neuropathic animals induced by oxaliplatin. Specifically, the animal was anaesthetized by intraperitoneal injection of sodium pentobarbital (50 mg/kg), and then, blood was removed by perfusion of 0.9% physiological saline through the aorta via left ventricle. Following fixation by perfusion of 4% paraformaldehyde solution buffered with 0.1 M phosphate, the 4th to 6th lumbar spinal cords, dorsal root ganglia, and the hind footpad skins were removed. The tissues were further fixed in the same fixation solution as above. The paraffin-embedded tissues were sectioned at a 4 μm thickness. The slices were mounted on a glass slide, dried, and then, kept at room temperature until use.
Dorsal root ganglions were cut out, sectioned into slices with 4 μm thickness and then, subjected to Azan-Mallory trichrome staining. The nucleoli in the stained slice were examined under an optical microscope. Among the neurons having discernible nucleoli, the number of neurons having eccentric nucleoli or multinucleolated nucleus was expressed as a percentage of the total neurons in a viewing area.
Specifically, peripheral neuropathy was induced in male C57BL/6 mice by oxaliplatin (10 mg/kg) according to [Materials and Methods 4]. After that, the mice were orally administered 6 times per week with 250 mg/kg of a Lithospermi Radix extract (WLR) prepared in [Materials and Methods 1] or 0.5% carboxymethyl cellulose (CMC) as a negative control. In addition, 100 mg/kg amifostine was intraperitoneally administered 2 times per week as a positive control. After drug administration for 2 weeks, dorsal root ganglion (DRG) was cut out according to [Materials and Methods 6-1]. Using the obtained specimen, morphological change of nucleus and nucleoli in the dorsal root ganglion (DRG) neurons was observed according to [Materials and Methods 6-4].

Data set [2] has as its system astrocytes and microglial cells in spinal cord of peripheral neuropathic animals induced by oxaliplatin. Kind of data set: Immunohistological analysis of glial cells (GFAP, Iba-1) in lumbar spinal cord. The class given is in vivo, C57BL/6 mice. The settings on record: after oxaliplatin 10 mg/kg; WLR 250 mg/kg oral 6 times per week or amifostine 100 mg/kg i.p. 2 times per week, 2 weeks.
From the text: as §3, §4
The slice of spinal cord with 4 μm thickness was subjected to immunofluorescence staining using antibodies against GFAP and Iba-1 which are astrocyte and microglial cell markers, respectively. After removal of paraffin and hydration, the slice was immersed in citrate buffer solution (Vector Lab., USA) for 10 minutes in a microwave to recover antigenicity and increase reactivity. […]
The activity of the glial cells was expressed by the ratio (%) of the area of stained cells relative to the viewing area under a fluorescence microscope. The fluorescence microscopic images were analyzed compared to the control treatment using a software (Cellsense, Olympus).
Specifically, peripheral neuropathy was induced in male C57BL/6 mice by oxaliplatin (10 mg/kg) according to [Materials and Methods 4]. […] Using the obtained specimen, activation of astrocytes and microglial cells in dorsal horn areas of the lumbar spinal cord of the animals was measured by detecting GFAP and Iba-1 marker proteins, respectively, according to [Materials and Methods 6-2]. Distribution of intraepidermal nerve fiber (IENF) in the hind footpad skin was measured by detecting PGP9.5 marker protein according to [Materials and Methods 6-3].

Data set [3] relates to intraepidermal nerve fiber (IENF) of peripheral neuropathic animals induced by oxaliplatin. The data set is described as follows: Quantitative histological analysis of intraepidermal nerve fiber (PGP9.5) in hind footpad skin. The data set is classed as in vivo, C57BL/6 mice. The conditions noted are these: after oxaliplatin 10 mg/kg; WLR 250 mg/kg oral 6 times per week or amifostine 100 mg/kg i.p. 2 times per week, 2 weeks.
From the text: as §3, with “Laboratories. […]” for “Laboratories.”
The slice of hind footpad skin with 4 μm thickness was subjected to immunofluorescence staining using a PGP9.5 antibody, a marker for IENF in skin. […] The expression level of intraepidermal nerve fibers was expressed by the number of fluorescence-stained nerves in epidermis which were stemmed from dermis per field length of the basal membrane of epidermis (IENF/mm) within a viewing area under a fluorescence microscope. The fluorescent microscopic images were analyzed compared with control treatment using a software (Cellsense, Olympus). […]

Structures are written as SMILES.

Turning to `COc1ccc2[nH]c([S+]([O-])Cc3ncc(C)c(OC)c3C)nc2c1` (centres unmarked) [omeprazole], the “expression of CYP2B6” value in the data set on CYP2B6 is listed as “effectively enhanced”. For the same compound, the “expression of CYP1A2” value with CYP1A2 is “effectively enhanced”.

As for `CO[C@H]1/C=C/O[C@@]2(C)Oc3c(C)c(O)c4c(O)c(c(/C=N/N5CCN(C)CC5)c(O)c4c3C2=O)NC(=O)/C(C)=C\C=C\[C@H](C)[C@H](O)[C@@H](C)[C@@H](O)[C@@H](C)[C@H](OC(C)=O)[C@@H]1C` [rifampicin], in the data set on P-gp, the “expression of P-gp” value is recorded as “effectively enhanced”.

Take `NCCCNCCSP(=O)(O)O` [amifostine]: in data set [1], the “oxaliplatin-induced morphological change: DRG neurons having eccentric nucleoli” value was “reduced to the same extent” and the “oxaliplatin-induced morphological change: number of neurons having multinucleolated nucleus” value is reported as “decreased with statistical significance”. Besides, in data set [2], the “oxaliplatin-increased number of activated astrocytes (GFAP positive cells)” value is on record as “reduced to the same extent” and the “oxaliplatin-increased number of activated microglial cells (Iba-1 positive cells)” value is on record as “reduced to the same extent”. For the same compound, the “oxaliplatin-reduced densities of intraepidermal nerve fibers in hind footpad skin” value in data set [3] is on record as “recovered”.

For the origin of these results see US10517913B2, “Composition for prevention, alleviation, or treatment of peripheral neuropathy comprising Lithospermi Radix extract as an effective component” (priority 2015, dated 2019).
